Laboratory results taken from EPA's ToxValDB 9.5.
Values joined by “and” are separate entries in the source; they are usually repeats but may differ in a detail not shown here. Identical values can stand only once.

Test system: Rattus norvegicus
[1] = reproduction developmental, oral, gavage, M, Crl:CD(SD), generation: P0, P0: General Toxicity: Whole Body: Necropsy Appeared Normal + P0: Nervous: CNS: Latency to Mount
[2] = reproduction developmental, oral, gavage, M, Sprague-Dawley, generation: P0, P0: General Toxicity: Whole Body: Body Weight Change + P0: General Toxicity: Whole Body: Clinical Observations + P0: General Toxicity: Whole…
[3] = short-term, duration: 28 days, oral, gavage, F, Crl:CD(SD), Liver: Liver Weight, Relative + Liver: Liver, Enlarged + Teeth: Incisors, Discolored
[4] = short-term, duration: 28 days, oral, gavage, F, Crl:CD(SD), Whole Body: Dystocia
[5] = short-term, duration: 28 days, oral, gavage, M/F, Crl:CD(SD), Adrenal: Adrenal Cortex Histopathology + Blood: Chloride (CL), Blood + Blood: Globulin (G), Blood + Blood: Potassium (K), Blood + Blood: …
[6] = short-term, duration: 28 days, oral, gavage, M/F, Crl:CD(SD), Whole Body: Body Weight Change + Whole Body: Body Weight, Absolute
[7] = short-term, duration: 28 days, oral, gavage, M, Crl:CD(SD), Teeth: Incisors, Discolored + Teeth: Teeth, Mottled
[8] = subchronic, duration: 90 days, oral, gavage, F, Crl:CD(SD), Blood: Activated Partial Thromboplastin Time (APTT) + Blood: Cholesterol (CHOL), Total + Blood: Fluoride (Plasma) + Blood: Hematocrit (HCT…
[9] = subchronic, duration: 90 days, oral, gavage, F, Crl:CD(SD), Blood: Activated Partial Thromboplastin Time (APTT) + Blood: Hematocrit (HCT) + Blood: Hemoglobin (HGB) + Blood: Red Blood Cell (RBC) + …
[10] = subchronic, duration: 90 days, oral, gavage, F, Crl:CD(SD), Blood: Cholesterol (CHOL), Total + Kidney: Kidney Weight, Absolute + Kidney: Kidney Weight, Relative + Kidney: Kidney Weight, Relative to …
[11] = subchronic, duration: 90 days, oral, gavage, F, Crl:CD(SD), Blood: Fluoride (Plasma), Recovery + Blood: Inorganic Phosphorous (PHOS) + Calcium (CA) + Kidney: Blood Urea Nitrogen (BUN), Blood + Kidney…
[12] = subchronic, duration: 90 days, oral, gavage, F, Crl:CD(SD), General Toxicity: Whole Body: Body Weight Change + General Toxicity: Whole Body: Clinical Observations + General Toxicity: Whole Body: …
[13] = subchronic, duration: 90 days, oral, gavage, F, Crl:CD(SD), Hematologic: Blood: Activated Partial Thromboplastin Time (APTT) + Hematologic: Blood: Hematocrit (HCT) + Hematologic: Blood: Hemoglobin (…
[14] = subchronic, duration: 90 days, oral, gavage, F, Crl:CD(SD), Kidney: Kidney Weight, Absolute + Liver: Liver Histopathology + Liver: Liver Weight, Absolute + Renal: Urinalysis, Unspecified
[15] = subchronic, duration: 90 days, oral, gavage, F, Crl:CD(SD), Other Systems: Eye: Ophthalmology + Other Systems: Nasal Cavity: Nasal Cavity/Tubinates Inflammation, Chronic, Focal/Multifocal + Other …
[16] = subchronic, duration: 90 days, oral, gavage, F, Crl:CD(SD), Pancreas: Pancreas Histopathology
[17] = subchronic, duration: 90 days, oral, gavage, F, Sprague-Dawley, Hematologic: Blood: Activated Partial Thromboplastin Time (APTT) + Hematologic: Blood: Hematocrit (HCT) + Hematologic: Blood: Hemoglobin (…
[18] = subchronic, duration: 90 days, oral, gavage, M, Crl:CD(SD), Blood: Activated Partial Thromboplastin Time (APTT) + Blood: Albumin/Globulin (A/G) Ratio + Blood: Fluoride (Plasma) + Blood: Hematocrit (…
[19] = subchronic, duration: 90 days, oral, gavage, M, Crl:CD(SD), Blood: Activated Partial Thromboplastin Time (APTT) + Blood: Hematocrit (HCT) + Blood: Hemoglobin (HGB) + Blood: Red Blood Cell (RBC) + …
[20] = subchronic, duration: 90 days, oral, gavage, M, Crl:CD(SD), Blood: Fluoride (Plasma), Recovery + Blood: Hematocrit (HCT) + Blood: Hemoglobin (HGB) + Liver: Liver, Biliary Hyperplasia + Liver: Liver, …
[21] = subchronic, duration: 90 days, oral, gavage, M, Crl:CD(SD), Blood: Inorganic Phosphorous (PHOS) + Blood: Potassium (K), Blood + Kidney: Blood Urea Nitrogen (BUN), Blood + Kidney: Kidney Weight, …
[22] = subchronic, duration: 90 days, oral, gavage, M, Crl:CD(SD), Blood: Inorganic Phosphorous (PHOS), Blood + Blood: Potassium (K), Blood + Epididymis: Epididymis Weight, Relative + Kidney: Blood Urea …
[23] = subchronic, duration: 90 days, oral, gavage, M, Crl:CD(SD), Blood: Total Protein (TP), Blood + Kidney: Kidney Histopathology + Kidney: Kidney Weight, Absolute + Liver: Total Bilirubin (TBILI), Blood…
[24] = subchronic, duration: 90 days, oral, gavage, M, Crl:CD(SD), General Toxicity: Whole Body: Body Weight Change + General Toxicity: Whole Body: Clinical Observations + General Toxicity: Whole Body: …
[25] = subchronic, duration: 90 days, oral, gavage, M, Crl:CD(SD), Hematologic: Blood: Activated Partial Thromboplastin Time (APTT) + Hematologic: Blood: Hematocrit (HCT) + Hematologic: Blood: Hemoglobin (…
[26] = subchronic, duration: 90 days, oral, gavage, M, Sprague-Dawley, Hematologic: Blood: Activated Partial Thromboplastin Time (APTT) + Hematologic: Blood: Hematocrit (HCT) + Hematologic: Blood: Hemoglobin (…

NEL (short-term, duration: 4 weeks, inhalation, F, Crl:CD(SD), Adrenal: Adrenal Gland Weight, Absolute + Adrenal: Adrenal Gland Weight, Absolute, Recovery + Adrenal: Adrenal Gland Weight, Relative + …): 1490 mg/m3
LEL (short-term, duration: 4 weeks, inhalation, F, Crl:CD(SD), Blood: Hematocrit (HCT) + Blood: Hemoglobin (HGB) + Blood: Red Blood Cell (RBC) + Bone: Decalcification, Trabeculae (4 wk) + Bone: …): 1490 mg/m3
NEL (short-term, duration: 4 weeks, inhalation, M, Crl:CD(SD), Adrenal: Adrenal Gland Weight, Absolute + Adrenal: Adrenal Gland Weight, Absolute, Recovery + Adrenal: Adrenal Gland Weight, Relative + …): 1490 mg/m3
LEL (short-term, duration: 4 weeks, inhalation, M, Crl:CD(SD), Bone: Decalcification, Trabeculae (4 wk) + Bone: Decalcification, Trabeculae (8 wk) + Kidney: Total Protein (TP), Urine + Liver: Albumin (A…): 1490 mg/m3
NEL (short-term, duration: 4 weeks, inhalation, M, Crl:CD(SD), Kidney: Total Protein (TP), Urine + Liver: Albumin (A), Blood + Liver: Liver Weight, Absolute + Liver: Liver Weight, Relative + Liver: Liver…): 149 mg/m3
LEL [3]: 25 mg/kg-day
NEL [3]: 5 mg/kg-day
NEL (short-term, duration: 28 days, oral, gavage, F, Crl:CD(SD), Teeth: Teeth, Mottled): 125 mg/kg-day
LEL [4]: 225 mg/kg-day
NEL [4]: 75 mg/kg-day
LEL [5]: 225 mg/kg-day
NEL [5]: 75 mg/kg-day
NEL (short-term, duration: 28 days, oral, gavage, M, Crl:CD(SD), Liver: Liver Weight, Relative + Liver: Liver, Enlarged): 125 mg/kg-day
LEL [7]: 25 mg/kg-day
NEL [7]: 5 mg/kg-day
NEL (subchronic, duration: 90 days, oral, gavage, F, Crl:CD(SD), Adrenal: Adrenal Gland Weight, Absolute + Adrenal: Adrenal Gland Weight, Relative + Blood: Basophils + Blood: Calcium (CA), Blood + Blood: …): 250 mg/kg-day
LEL [8]: 125 mg/kg-day
NEL [8]: 25 mg/kg-day
LEL [9]: 125 mg/kg-day
NEL [9]: 25 mg/kg-day
LEL [10]: 25 mg/kg-day
NEL [10]: 5 mg/kg-day
LEL [11]: 250 mg/kg-day
NEL [11]: 125 mg/kg-day
NEL (subchronic, duration: 90 days, oral, gavage, F, Crl:CD(SD), Blood: Inorganic Phosphorous (PHOS) + Blood: Triglycerides (TRIG) + Calcium (CA) + Kidney: Blood Urea Nitrogen (BUN), Blood + Kidney: …): 250 mg/kg-day
LEL [14]: 25 mg/kg-day
NEL [14]: 5 mg/kg-day
LEL [16]: 250 mg/kg-day
NEL [16]: 125 mg/kg-day
NEL (subchronic, duration: 90 days, oral, gavage, M, Crl:CD(SD), Adrenal: Adrenal Gland Weight, Absolute + Adrenal: Adrenal Gland Weight, Relative + Blood: Basophils + Blood: Calcium (CA), Blood + Blood: …): 250 mg/kg-day
LEL [18]: 25 mg/kg-day
NEL [18]: 5 mg/kg-day
LEL [19]: 25 mg/kg-day
NEL [19]: 5 mg/kg-day
LEL [20]: 250 mg/kg-day
NEL [20]: 125 mg/kg-day
LEL [21]: 125 mg/kg-day
NEL [21]: 25 mg/kg-day
LEL [22]: 125 mg/kg-day
NEL [22]: 25 mg/kg-day
LEL [23]: 250 mg/kg-day
NEL [23]: 125 mg/kg-day
Structure (SMILES): OCCC(F)(F)C(F)(F)C(F)(F)C(F)(F)C(F)(F)C(F)(F)F [2-(Perfluorohexyl)ethanol]
NOAEL (reproduction developmental, oral, gavage, M/F, Crl:CD(SD), generation: P0, P0: Reproductive: Whole Body: Gestation Index): 25 mg/kg-day
LOAEL [1]: 225 mg/kg-day
NOAEL [1]: 75 mg/kg-day
NOAEL (reproduction developmental, oral, gavage, M, Crl:CD(SD), generation: P0, P0: Nervous: CNS: Latency to Mount): 225 mg/kg-day
LOAEL (reproduction developmental, oral, gavage, M, Sprague-Dawley, generation: P0, P0: Endocrine: Pituitary: Pituitary Gland Histopathology + P0: Endocrine: Pituitary: Pituitary Gland Weight, Absolute + P0: Endocrine: …): 125 mg/kg-day
LOAEL [2]: 125 mg/kg-day
NOAEL [2]: 25 mg/kg-day
NEL (short-term, duration: 4 weeks, inhalation, F, Crl:CD(SD), Blood: Hematocrit (HCT) + Blood: Hemoglobin (HGB) + Blood: Red Blood Cell (RBC) + Liver: Alanine Aminotransferase (ALT), Blood + Liver: …): 149 mg/m3
LEL [6]: 75 mg/kg-day
NEL [6]: 25 mg/kg-day
LOAEL (subchronic, duration: 90 days, oral, gavage, F, Crl:CD(SD), Cardiovascular: Heart: Heart Weight, Absolute + Cardiovascular: Heart: Heart Weight, Relative + Endocrine: Adrenal: Adrenal Gland Weight, …): 25 mg/kg-day
LOAEL [12]: 125 mg/kg-day
NOAEL [12]: 25 mg/kg-day
LOAEL [13]: 25 mg/kg-day
NOAEL [13]: 5 mg/kg-day
LOAEL [15]: 250 mg/kg-day
NOAEL [15]: 125 mg/kg-day
LOAEL [17]: 25 mg/kg-day
NOAEL [17]: 5 mg/kg-day
NOAEL (subchronic, duration: 90 days, oral, gavage, F, Sprague-Dawley, Other Systems: Tooth: Tooth Discoloration + Other Systems: Tooth: Tooth Discoloration, Recovery + Other Systems: Tooth: Tooth Findings, …): 250 mg/kg-day
LOAEL (subchronic, duration: 90 days, oral, gavage, M, Crl:CD(SD), Cardiovascular: Heart: Heart Weight, Absolute + Cardiovascular: Heart: Heart Weight, Relative + Endocrine: Adrenal: Adrenal Gland Weight, …): 25 mg/kg-day
LOAEL [24]: 125 mg/kg-day
NOAEL [24]: 25 mg/kg-day
LOAEL [25]: 25 mg/kg-day
NOAEL [25]: 5 mg/kg-day
LOAEL (subchronic, duration: 90 days, oral, gavage, M, Crl:CD(SD), Immune: Blood: Basophils + Immune: Blood: Eosinophils + Immune: Blood: Lymphocyte + Immune: Blood: Monocytes + Immune: Blood: Neutrophils + …): 250 mg/kg-day
LOAEL (subchronic, duration: 90 days, oral, gavage, M, Crl:CD(SD), Other Systems: Eye: Ophthalmology + Other Systems: Nasal Cavity: Nasal Cavity/Tubinates Inflammation, Chronic, Focal/Multifocal + Other …): 125 mg/kg-day and 250 mg/kg-day
LOAEL (subchronic, duration: 90 days, oral, gavage, M, Crl:CD(SD), Reproductive: Epididymis: Epididymis Weight, Absolute + Reproductive: Epididymis: Epididymis Weight, Relative + Reproductive: Testis: Testis…): 5 mg/kg-day
LOAEL [26]: 25 mg/kg-day
NOAEL [26]: 5 mg/kg-day
NOAEL (subchronic, duration: 90 days, oral, gavage, M, Sprague-Dawley, Other Systems: Blood: Potassium (K) + Other Systems: Tooth: Tooth Discoloration + Other Systems: Tooth: Tooth Discoloration, Recovery + …): 250 mg/kg-day
